Measurements taken from patent US20210300940A1 (Merck Patent GmbH, priority 2018, published 2021).
Structures can show the parent of a compound that is named as a salt.

Experiments:
[1] = target: T1, TLR7 (Homo sapiens, UniProt Q9NYK1); assay: HEK/293 TLR7 Cell Assay; assay type: cell-based; conditions: TLR7/NFKb HEK cells, R848 agonist 10 uM final concentration, Steady-Glo readout; read-out: TLR7 potency
T1 construct: expressed in transfected cells; host or cells: HEK/293 cells carrying TLR7 and an NF-kB luciferase reporter
T1 sequence (Q9NYK1 27-1049): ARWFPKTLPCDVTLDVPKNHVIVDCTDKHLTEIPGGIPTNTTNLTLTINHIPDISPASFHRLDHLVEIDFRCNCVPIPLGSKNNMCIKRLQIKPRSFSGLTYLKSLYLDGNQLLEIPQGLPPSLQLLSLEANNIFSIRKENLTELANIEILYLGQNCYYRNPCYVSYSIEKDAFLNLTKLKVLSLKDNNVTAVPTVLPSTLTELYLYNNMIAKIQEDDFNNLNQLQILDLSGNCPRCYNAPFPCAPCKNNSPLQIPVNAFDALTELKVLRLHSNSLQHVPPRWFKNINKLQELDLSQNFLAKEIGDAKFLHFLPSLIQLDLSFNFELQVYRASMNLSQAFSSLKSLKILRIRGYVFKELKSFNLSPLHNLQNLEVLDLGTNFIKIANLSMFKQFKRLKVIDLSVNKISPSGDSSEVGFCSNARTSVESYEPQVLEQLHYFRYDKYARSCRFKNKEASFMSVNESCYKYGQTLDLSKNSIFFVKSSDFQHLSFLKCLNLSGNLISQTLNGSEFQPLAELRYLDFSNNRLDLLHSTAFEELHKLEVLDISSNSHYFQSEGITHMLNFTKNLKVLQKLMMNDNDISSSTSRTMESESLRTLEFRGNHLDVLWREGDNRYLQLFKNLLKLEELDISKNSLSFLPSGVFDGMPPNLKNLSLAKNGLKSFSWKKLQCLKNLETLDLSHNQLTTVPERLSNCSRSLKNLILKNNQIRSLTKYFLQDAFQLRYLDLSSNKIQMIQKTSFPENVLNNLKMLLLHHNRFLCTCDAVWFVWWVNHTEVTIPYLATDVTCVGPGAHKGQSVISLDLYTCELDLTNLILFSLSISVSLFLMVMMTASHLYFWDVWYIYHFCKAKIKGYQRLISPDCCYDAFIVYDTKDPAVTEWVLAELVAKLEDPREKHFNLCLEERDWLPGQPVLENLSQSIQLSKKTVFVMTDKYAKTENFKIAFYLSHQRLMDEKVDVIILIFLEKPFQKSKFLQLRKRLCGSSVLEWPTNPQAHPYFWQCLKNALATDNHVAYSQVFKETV
How it was run: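 Compounds added to HEK cells expressing TLR7 with an NFκB reporter 30 min ahead of 10 uM R848 challenge; luciferase signal (Steady-Glo) measured after 5 h, cells having been seeded 24 h earlier at 5000 per well.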

[2] = target: T2, TLR8 (Homo sapiens, UniProt Q9NR97); assay: HEK/293 TLR8 Cell Assay; assay type: cell-based; conditions: HEK cells, R848 agonist 30 uM final concentration, Steady-Glo readout; read-out: TLR8 potency
T2 construct: expressed in transfected cells; host or cells: HEK/293 reporter cells (NF-kB luciferase)
T2 sequence (Q9NR97 27-1041): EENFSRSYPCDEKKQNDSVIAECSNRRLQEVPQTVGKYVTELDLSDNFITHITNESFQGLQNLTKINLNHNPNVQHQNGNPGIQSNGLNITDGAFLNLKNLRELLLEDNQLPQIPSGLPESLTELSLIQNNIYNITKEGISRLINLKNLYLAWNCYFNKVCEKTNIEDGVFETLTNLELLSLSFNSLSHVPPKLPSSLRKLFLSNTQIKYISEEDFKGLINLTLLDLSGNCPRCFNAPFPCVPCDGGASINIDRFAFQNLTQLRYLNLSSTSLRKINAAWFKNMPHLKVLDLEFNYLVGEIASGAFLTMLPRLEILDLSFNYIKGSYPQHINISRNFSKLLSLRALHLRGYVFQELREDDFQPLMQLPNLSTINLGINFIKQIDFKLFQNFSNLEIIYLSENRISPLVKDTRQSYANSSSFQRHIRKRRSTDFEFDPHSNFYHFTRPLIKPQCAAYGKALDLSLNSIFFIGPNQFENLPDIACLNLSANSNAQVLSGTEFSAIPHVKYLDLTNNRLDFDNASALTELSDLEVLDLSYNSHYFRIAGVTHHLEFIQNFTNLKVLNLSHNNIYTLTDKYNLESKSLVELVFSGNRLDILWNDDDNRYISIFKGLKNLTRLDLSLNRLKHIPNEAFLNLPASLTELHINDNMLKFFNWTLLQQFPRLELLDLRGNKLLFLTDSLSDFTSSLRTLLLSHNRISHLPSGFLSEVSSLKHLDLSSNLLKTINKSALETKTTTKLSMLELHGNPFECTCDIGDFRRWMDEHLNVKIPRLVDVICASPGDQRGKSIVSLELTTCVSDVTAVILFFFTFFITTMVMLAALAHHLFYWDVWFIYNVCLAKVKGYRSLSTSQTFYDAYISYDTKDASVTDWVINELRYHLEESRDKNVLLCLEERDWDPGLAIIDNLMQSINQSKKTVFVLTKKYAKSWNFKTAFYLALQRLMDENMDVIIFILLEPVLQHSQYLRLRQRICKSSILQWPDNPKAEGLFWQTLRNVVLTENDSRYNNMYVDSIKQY

| Structure (SMILES) | IC50 [1] | IC50 [2] |
| --- | --- | --- |
| CN1CCN(CC(=O)N[C@@H]2C[C@H](C(F)(F)F)CN(c3ccc(C#N)c4ncccc34)C2)CC1 [Example 82, N-((3R,5S)-1-(8-cyanoquinolin-5-yl)-5-(trifluoromethyl)piperidin-3-yl)-2-(4-methylpiperazin-1-yl)acetamide] | 75 to 150 nM | < 75 nM |
| Cc1ccc(N2C[C@H](NC(=O)CC3(O)CCN(C)CC3)C[C@H](C(F)(F)F)C2)c2cccnc12 [Example 87, 2-(4-hydroxy-1-methylpiperidin-4-yl)-N-[(3R,5S)-1-(8-methylquinolin-5-yl)-5-(trifluoromethyl)piperidin-3-yl]acetamide] | < 75 nM | < 75 nM |
| C[C@@H]1CN(c2ccc(C#N)c3nccnc23)C[C@H](C(=O)N2C[C@H](N)C[C@H](C(F)(F)F)C2)O1 [Example 295, 8-[(2R,6R)-2-((3R,5S)-3-Amino-5-trifluoromethyl-piperidine-1-carbonyl)-6-methyl-morpholin-4-yl]-quinoxaline-5-carbonitrile hydrochloride (2)] | < 75 nM | < 75 nM |
| CN1CCC(C(=O)N[C@@H]2C[C@H](C(F)(F)F)CN(c3ccc(C#N)c4ncccc34)C2)CC1 [Example 61, 1-Methyl-piperidine-4-carboxylic acid [(3R,5S)-1-(8-cyano-quinolin-5-yl)-5-trifluoromethyl-piperidin-3-yl]-amide] | < 75 nM | < 75 nM |
| CONC(=O)CCN[C@@H]1C[C@H](C)CN(c2ccc(C(F)(F)F)c3ncccc23)C1 [Example 55, N-Methoxy-3-[(3R,5S)-5-methyl-1-(8-trifluoromethyl-quinolin-5-yl)-piperidin-3-ylamino]-propionamide] | < 75 nM | < 75 nM |
| Cc1c(F)cc(N2C[C@H](CN3CCC(N4CCCC4)CC3)O[C@H](C)C2)c2cccnc12 [Example 223, 7-Fluoro-8-methyl-5-[(2R,6S)-2-methyl-6-(4-pyrrolidin-1-yl-piperidin-1-ylmethyl)-morpholin-4-yl]-quinoline] | < 75 nM | < 75 nM |
| CC(C(=O)N[C@@H]1C[C@H](C)CN(c2ccc(C#N)c3ncncc23)C1)N1CCN(C)CC1 (single isomer, unassigned) [Example 96] | 75 to 150 nM | > 150 nM |
| C[C@@H]1CN(c2ccc(C#N)c3nccnc23)C[C@H](C(=O)N[C@H]2CCN(CC3CC3)C2)O1 (single isomer, unassigned) [Example 322] | < 75 nM | < 75 nM |
| C[C@@H]1CN(c2ccc(C#N)c3nccnc23)C[C@H](C(=O)NC2CCN(CC3CC3)C2)O1 (stereo partly drawn) [Example 241, (2R,6R)-4-(8-Cyano-quinoxalin-5-yl)-6-methyl-morpholine-2-carboxylic acid (1-cyclopropylmethyl-pyrrolidin-3-yl)-amide] | < 75 nM | < 75 nM |
| C[C@H]1C[C@@H](NC(=O)[C@@H]2CCNC2)CN(c2ccc(C(F)(F)F)c3ncccc23)C1 [Example 204, (3R)—N-[(3R,5S)-5-methyl-1-[8-(trifluoromethyl)quinolin-5-yl]piperidin-3-yl]pyrrolidine-3-carboxamide] | < 75 nM | < 75 nM |
| C[C@H]1C[C@@H](NS(=O)(=O)NC(=O)CN2CCOCC2)CN(c2ccc(C(F)(F)F)c3ncccc23)C1 [Example 203, N-{[(3R,5S)-5-methyl-1-[8-(trifluoromethyl)quinolin-5-yl]piperidin-3-yl]sulfamoyl}-2-(morpholin-4-yl)acetamide] | 75 to 150 nM | < 75 nM |
| C[C@H]1C[C@@H](NCC2COC2)CN(c2ccc(C#N)c3nccnc23)C1 [Example 47, 8-{(3S,5R)-3-Methyl-5-[(oxetan-3-ylmethyl)-amino]-piperidin-1-yl}-quinoxaline-5-carbonitrile] | < 75 nM | < 75 nM |
| N#Cc1ccc(N2C[C@H](N)C[C@H](C(F)(F)F)C2)c2ccc(=O)[nH]c12 [Example 388, 5-((3R,5S)-3-Amino-5-trifluoromethyl-piperidin-1-yl)-2-oxo-1,2-dihydro-quinoline-8-carbonitrile] | > 150 nM | > 150 nM |
| C[C@H]1C[C@@H](NC(=O)CN(CCN)CCO)CN(c2ccc(C#N)c3nccnc23)C1 [Example 150, 2-[(2-Amino-ethyl)-(2-hydroxy-ethyl)-amino]-N-[(3R,5S)-1-(8-cyano-quinoxalin-5-yl)-5-methyl-piperidin-3-yl]-acetamide] | < 75 nM | < 75 nM |
| N#Cc1ccc(N2C[C@H](N)CC(F)(F)C2)c2cccnc12 (single isomer, unassigned) [Example 197] | < 75 nM | < 75 nM |
| C[C@H]1C[C@@H](NC(=O)NCCN(C)C)CN(c2ccc(C#N)c3nccnc23)C1 [Example 140, 1-[(3R,5S)-1-(8-cyanoquinoxalin-5-yl)-5-methylpiperidin-3-yl]-3-[2-(dimethylamino)ethyl]urea] | < 75 nM | < 75 nM |
| C[C@@H]1CN(c2ccc(C#N)c3nccnc23)C[C@H](C(=O)N2CC(N3CC(C)(O)C3)C2)O1 [Example 235, 8-[(2R,6R)-2-(3-Hydroxy-3-methyl-[1,3′]biazetidinyl-1′-carbonyl)-6-methyl-morpholin-4-yl]-quinoxaline-5-carbonitrile] | 75 to 150 nM | 75 to 150 nM |
| C[C@@H]1CN(c2ccc(C#N)c3nccnc23)C[C@H](C(=O)NCC2(F)CCNC2)O1 (stereo partly drawn) [Example 292, (2R,6R)-4-(8-Cyano-quinoxalin-5-yl)-6-methyl-morpholine-2-carboxylic acid (3-fluoro-pyrrolidin-3-ylmethyl)-amide] | < 75 nM | < 75 nM |
| Cc1ccc(N2C[C@H](NC(=O)CC3CCN(C(C)C)CC3)C[C@H](C(F)(F)F)C2)c2cccnc12 [Example 109, 2-(1-Isopropyl-piperidin-4-yl)-N-[(3R,5S)-1-(8-methyl-quinolin-5-yl)-5-trifluoromethyl-piperidin-3-yl]-acetamide] | > 150 nM | 75 to 150 nM |
| N#Cc1ccc(N2C[C@H](NC(=O)[C@H]3CCCN3)C[C@H](C(F)(F)F)C2)c2cccnc12 [Example 126, (2R)—N-[(3R,5S)-1-(8-cyanoquinolin-5-yl)-5-(trifluoromethyl)piperidin-3-yl]pyrrolidine-2-carboxamide] | 75 to 150 nM | > 150 nM |
| CN(C)CCC(=O)N[C@@H]1C[C@H](C(F)(F)F)CN(c2ccc(C#N)c3ncccc23)C1 [Example 65, N-[(3R,5S)-1-(8-cyanoquinolin-5-yl)-5-(trifluoromethyl)piperidin-3-yl]-3-(dimethylamino)propanamide] | < 75 nM | < 75 nM |
